What was measured:
Format in all cases: functional, cell-based
[1] = target: T1, 5-hydroxytryptamine receptor 2A (Homo sapiens, UniProt P28223); assay: Agonist activity at human 5HT2A receptor stably expressed in Flp-In-T-REx-293 cells assessed as increase in Gq-mediated calcium flux by Fluo-4 direct dye based FLIPR Tetra assay
[2] = target: T2, 5-hydroxytryptamine receptor 2C (Homo sapiens) (UniProt P28335); assay: Agonist activity at human 5HT2C receptor stably expressed in Flp-In-T-REx-293 cells assessed as maximal Gq-mediated calcium flux by Fluo-4 direct dye based FLIPR Tetra assay relative to control
T2 sequence (whole entry): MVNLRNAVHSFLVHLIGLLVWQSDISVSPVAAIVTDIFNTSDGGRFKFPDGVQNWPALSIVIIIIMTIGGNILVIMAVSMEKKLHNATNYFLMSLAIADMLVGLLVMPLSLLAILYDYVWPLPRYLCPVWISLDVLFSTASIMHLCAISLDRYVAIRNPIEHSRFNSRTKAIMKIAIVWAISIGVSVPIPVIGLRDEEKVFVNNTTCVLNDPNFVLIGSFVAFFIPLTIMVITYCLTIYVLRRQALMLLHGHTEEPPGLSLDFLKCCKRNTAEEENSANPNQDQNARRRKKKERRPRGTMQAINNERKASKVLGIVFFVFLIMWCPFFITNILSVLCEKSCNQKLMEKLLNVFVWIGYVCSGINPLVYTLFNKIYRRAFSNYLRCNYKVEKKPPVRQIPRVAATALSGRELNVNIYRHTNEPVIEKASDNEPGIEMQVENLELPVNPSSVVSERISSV

[3] = target: T1, 5-hydroxytryptamine receptor 2A; assay: Agonist activity at human 5HT2A receptor stably expressed in Flp-In-T-REx-293 cells assessed as maximal Gq-mediated calcium flux by Fluo-4 direct dye based FLIPR Tetra assay relative to control
[4] = target: T3, 5-hydroxytryptamine receptor 2C (Homo sapiens, UniProt P28335); assay: Agonist activity at human 5HT2C receptor stably expressed in Flp-In-T-REx-293 cells assessed as increase in Gq-mediated calcium flux by Fluo-4 direct dye based FLIPR Tetra assay
T3 sequence (P28335 whole entry): T2 sequence (whole entry)

T1 sequence (P28223 whole entry): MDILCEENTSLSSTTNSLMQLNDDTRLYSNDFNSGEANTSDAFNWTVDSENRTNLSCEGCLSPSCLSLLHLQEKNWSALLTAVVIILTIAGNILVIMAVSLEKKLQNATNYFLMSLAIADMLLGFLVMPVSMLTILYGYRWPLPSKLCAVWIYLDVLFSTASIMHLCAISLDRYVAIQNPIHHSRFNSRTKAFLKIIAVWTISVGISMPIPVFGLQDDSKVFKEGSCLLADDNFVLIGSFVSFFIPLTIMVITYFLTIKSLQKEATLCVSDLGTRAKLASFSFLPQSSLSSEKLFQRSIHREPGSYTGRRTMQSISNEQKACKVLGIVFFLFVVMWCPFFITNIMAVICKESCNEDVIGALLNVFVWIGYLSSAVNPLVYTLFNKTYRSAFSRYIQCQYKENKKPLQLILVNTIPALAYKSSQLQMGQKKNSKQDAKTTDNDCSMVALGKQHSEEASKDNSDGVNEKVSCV

Row | SMILES | EC50 [1] [nM] | Emax ([2]; filed as agonist) [%] | Emax ([3]; filed as agonist) [%] | EC50 ([4]; read-out: EC50) [nM] | Emax [3] [%] | Emax [2] [%] | EC50 ([4]; read-out: pEC50 (converted)) [nM]
1 | Fc1ccc2[nH]c3c(c2c1)CCNC3c1ccc2ccccc2c1 (centres undefined) | 195 | 103 | 79.1 | 186 |  |  | 
2 | Oc1ccc(C2NCCc3c2[nH]c2ccc(Cl)cc32)c(O)c1 (centres undefined) | 1.5 | 102 | 91.2 | 1.9 |  |  | 
3 | Oc1ccc2[nH]c3c(c2c1)CCNC3c1cc(F)ccc1O (centres undefined) | 216 | 101 | 88.4 | 77 |  |  | 
4 | Clc1ccc2[nH]c3c(c2c1)CCNC3CCc1ccccc1 (centres undefined) | 64 | 98.5 | 101 | 15.8 |  |  | 
5 | CCC1NCCc2c1[nH]c1ccc(Cl)cc21 (centres undefined) | 398 | 80.8 | 74.3 | 7940 |  |  | 
6 | Fc1ccc2[nH]c3c(c2c1)CCNC3c1cccs1 (centres undefined) | 409 | 102 |  | 147 | 36.4 |  | 
7 | Fc1ccc2[nH]c3c(c2c1)CCNC3c1nccs1 (centres undefined) |  |  |  | 1260 |  | 39.4 | 
8 | Oc1ccc2[nH]c3c(c2c1)CCNC3CCc1ccccc1 (centres undefined) | 139 |  | 45.8 |  |  |  | 
9 | CCCC1NCCc2c1[nH]c1ccc(Cl)cc21 (centres undefined) | 646 |  | 50.1 | > 10000 |  |  | 
10 | Clc1ccc2[nH]c3c(c2c1)CCNC3C1CCOCC1 (centres undefined) | 371 | 63.8 | 42.8 | 295 |  |  | 
11 | Oc1ccc(C2NCCc3c2[nH]c2ccc(O)cc32)cc1 (centres undefined) | 159 | 99.4 | 80 | 152 |  |  | 
12 | Cc1cccc(C2NCCc3c2[nH]c2ccc(O)cc32)c1 (centres undefined) | 244 | 99.1 | 60.9 | 191 |  |  | 
13 | Fc1ccc2[nH]c3c(c2c1)CCNC3C(c1ccccc1)c1ccccc1 (centres undefined) | 1910 | 103 | 92.5 | 954 |  |  | 
14 | Oc1ccc2[nH]c3c(c2c1)CCNC3c1ccccc1 (centres undefined) | 2510 |  |  |  | 26.3 |  | 
15 | NCCc1c[nH]c2ccc(O)cc12 |  |  | 100 |  |  |  | 
16 | Cc1ccc(C2NCCc3c2[nH]c2ccc(Cl)cc32)cc1 (centres undefined) | 303 | 97.2 | 94.1 | 62.5 |  |  | 
17 | Fc1ncccc1C1NCCc2c1[nH]c1ccc(Cl)cc21 (centres undefined) | 346 | 75.2 | 56.1 | 1060 |  |  | 
18 | Fc1ccc2[nH]c3c(c2c1)CCNC3c1ccccc1Br (centres undefined) | 98 | 75.1 |  | 2100 | 10.5 |  | 
19 | COc1ccccc1C1NCCc2c1[nH]c1ccc(F)cc21 (centres undefined) | 126 | 94.3 | 43.1 | 75.4 |  |  | 
20 | Fc1ccccc1C1NCCc2c1[nH]c1ccc(Cl)cc21 (centres undefined) | 8000 |  |  | 1160 | 23.2 | 13.9 | 
21 | COc1ccccc1C1NCCc2c1[nH]c1ccc(O)cc21 (centres undefined) | 269 |  |  |  | 21.5 |  | 
22 | Oc1ccc2[nH]c3c(c2c1)CCNC3c1ccc(Br)cc1O (centres undefined) | 364 | 100 | 67.8 | 173 |  |  | 
23 | Oc1ccc2[nH]c3c(c2c1)CCNC3c1ccccc1Cl (centres undefined) | 1420 |  |  |  | 14.3 |  | 
24 | Oc1cccc(C2NCCc3c2[nH]c2ccc(Cl)cc32)c1 (centres undefined) | 3300 | 67.4 | 49.1 | 688 |  |  | 

Row | SMILES | EC50 [1] [nM] | Emax ([2]; filed as agonist) [%] | Emax ([3]; filed as agonist) [%] | EC50 ([4]; read-out: EC50) [nM] | Emax [3] [%] | Emax [2] [%] | EC50 ([4]; read-out: pEC50 (converted)) [nM]
25 | Clc1ccc2[nH]c3c(c2c1)CCNC3c1cccs1 (centres undefined) | 724 | 48.6 |  | 602 | 23.7 |  | 
26 | Oc1ccc2[nH]c3c(c2c1)CCNC3c1cc(Br)ccc1O (centres undefined) | 455 | 104 | 85.9 | 194 |  |  | 
27 | Clc1ccc2[nH]c3c(c2c1)CCNC3C(c1ccccc1)c1ccccc1 (centres undefined) | 1350 | 106 | 88.1 | 3240 |  |  | 0.324
28 | Fc1ccc2[nH]c3c(c2c1)CCNC3C1CCOCC1 (centres undefined) | 354 | 42.3 |  | 891 | 34.1 |  | 
29 | Clc1ccc2[nH]c3c(c2c1)CCNC3c1ccc(Cl)s1 (centres undefined) | 177 | 117 | 100 | 44 |  |  | 
30 | Cc1ccc(C2NCCc3c2[nH]c2ccc(F)cc32)cc1 (centres undefined) | 208 | 85.4 |  | 2060 | 39.9 |  | 
31 | Oc1cccc(C2NCCc3c2[nH]c2ccc(O)cc32)c1 (centres undefined) | 223 | 95.4 | 93.4 | 148 |  |  | 
32 | CCC1NCCc2c1[nH]c1ccc(F)cc21 (centres undefined) | 597 | 96.2 | 75.4 | 200 |  |  | 
33 | CCC1NCCc2c1[nH]c1ccc(O)cc21 (centres undefined) | 195 | 97.6 | 85.1 | 61 |  |  | 
34 | Clc1ccc2[nH]c3c(c2c1)CCNC3c1ccccc1 (centres undefined) | 248 | 98 | 83.9 | 68.9 |  |  | 
35 | Fc1ccc2[nH]c3c(c2c1)CCNC3c1ccccc1F (centres undefined) | 302 | 81 | 48.9 | 1010 |  |  | 
36 | CCCC1NCCc2c1[nH]c1ccc(F)cc21 (centres undefined) | > 10000 |  |  | > 10000 |  |  | 
37 | Oc1ccc2[nH]c3c(c2c1)CCNC3c1cc(Cl)ccc1O (centres undefined) | 1570 | 97.1 | 47.6 | 754 |  |  | 
38 | Cc1ccc(C2NCCc3c2[nH]c2ccc(O)cc32)cc1 (centres undefined) | 312 | 95 |  | 1130 | 11.2 |  | 
39 | Clc1ccc2[nH]c3c(c2c1)CCNC3Cc1ccccc1 (centres undefined) | 2620 |  | 56.1 |  |  |  | 
40 | COc1ccccc1C1NCCc2c1[nH]c1ccc(Cl)cc21 (centres undefined) | 207 | 82.9 | 41.6 | 284 |  |  | 
41 | Fc1ccc2[nH]c3c(c2c1)CCNC3c1ccccc1 (centres undefined) | 88.5 | 102 | 86.5 | 22.4 |  |  | 
42 | Fc1ccc2[nH]c3c(c2c1)CCNC3CCc1ccccc1 (centres undefined) | 812 | 91.3 |  | 467 | 31.7 |  | 
43 | Oc1ccc2[nH]c3c(c2c1)CCNC3c1cncnc1 (centres undefined) | 800 | 83.3 | 89.3 |  |  |  | 2950
44 | Clc1ccc2[nH]c3c(c2c1)CCNC3c1ccccc1Cl (centres undefined) | 12.8 | 109 | 95.3 | 12.6 |  |  | 
45 | Oc1ccccc1C1NCCc2c1[nH]c1ccc(Cl)cc21 (centres undefined) | 51.7 | 103 | 92.7 | 15.3 |  |  | 
46 | Fc1ccc2[nH]c3c(c2c1)CCNC3Cc1ccccc1 (centres undefined) | 1330 |  | 44.4 |  |  |  | 
47 | Oc1ccc2[nH]c3c(c2c1)CCNC3c1ccccc1O (centres undefined) |  | 103 |  |  | 26.9 |  | 
48 | Fc1ccc2[nH]c3c(c2c1)CCNC3c1cncnc1 (centres undefined) |  | 101 | 95.1 |  |  |  | 
